These results are taken from ChEMBL document CHEMBL3045308, “Design and synthesis of novel pyrethriods containing eugenol moiety” (2012).

Common to all, as to type: functional
For test [1], the system named is Culex quinquefasciatus. In words: Insecticidal activity against Culex quinquefasciatus assessed as contact mortality at 0.025 mg/ml at 24 hr by standard immersion method relative to control.
The test system of test [2] is Culex quinquefasciatus. The test can be described thus: Insecticidal activity against Culex quinquefasciatus assessed as contact mortality at 0.025 mg/ml at 12 hr by standard immersion method relative to control.
Test [3] deals with Culex quinquefasciatus. In words: Insecticidal activity against Culex quinquefasciatus assessed as contact mortality at 0.025 mg/ml at 4 hr by standard immersion method relative to control.
Test [4] deals with Culex quinquefasciatus. In words: Insecticidal activity against Culex quinquefasciatus assessed as contact mortality at 0.025 mg/ml at 1 hr by standard immersion method relative to control.

As for `C=CC(OC(=O)C(c1ccc(Cl)cc1)C(C)C)c1ccc(OC(C)=O)c(OC)c1` (centres undefined), the mortality at 25 µg/mL with Culex quinquefasciatus [1] stood at 85%; with Culex quinquefasciatus [2], 47%; in the test on Culex quinquefasciatus [3] it was 25%; in the test with Culex quinquefasciatus [4] it was 14%.

For `C=CC(OC(=O)C(c1ccc(Cl)cc1)C(C)C)c1ccc(OCC)c(OC)c1` (centres undefined), the mortality at 25 µg/mL in the test with Culex quinquefasciatus [1] worked out at 96%; in the test on Culex quinquefasciatus [2], 42%; in the test with Culex quinquefasciatus [3], 23%; in the test on Culex quinquefasciatus [4], 10%.

Turning to `C=CC(OC(=O)C1C(C=C(C)C)C1(C)C)c1ccc(OC(C)=O)c(OC)c1` (centres undefined), the mortality at 25 µg/mL in the test on Culex quinquefasciatus [1] worked out at 88%; in the test with Culex quinquefasciatus [2] it was 34%; in the test on Culex quinquefasciatus [3], 25%; in the test on Culex quinquefasciatus [4], 10%.

For the compound `C=CC(OC(=O)C1C(C=C(C)C)C1(C)C)c1ccc(OCC)c(OC)c1` (centres undefined), the mortality at 25 µg/mL in the test with Culex quinquefasciatus [1] came out at 97%; with Culex quinquefasciatus [2], 40%; with Culex quinquefasciatus [3], 22%; with Culex quinquefasciatus [4] it was 15%.

For the compound `C=CCC1=C(C)C(OC(=O)C2C(C=C(C)C)C2(C)C)CC1=O` (centres undefined) [Allethrin], the mortality at 25 µg/mL turned out to be 85% in the test on Culex quinquefasciatus [1], 33% with Culex quinquefasciatus [2], 20% in the test on Culex quinquefasciatus [3] and 12% in the test on Culex quinquefasciatus [4].

On to `CC(C)C(C(=O)OC(C#N)c1cccc(Oc2ccccc2)c1)c1ccc(Cl)cc1` (centres undefined) [FENVALERATE], for which the mortality at 25 µg/mL in the test on Culex quinquefasciatus [1] stood at 88%; with Culex quinquefasciatus [2], 40%; in the test with Culex quinquefasciatus [3] it was 18%; in the test with Culex quinquefasciatus [4] it was 10%.
